# Measurements from US9758492B2, “IDO inhibitors” (Bristol-Myers Squibb Company, priority 2013, dated 2017).
# Molecular target: IDO (Homo sapiens, UniProt P14902)
# Experiment: LLE_IDO_ABS_DR (IDO assay)
# Chain of IDO (P14902 whole entry): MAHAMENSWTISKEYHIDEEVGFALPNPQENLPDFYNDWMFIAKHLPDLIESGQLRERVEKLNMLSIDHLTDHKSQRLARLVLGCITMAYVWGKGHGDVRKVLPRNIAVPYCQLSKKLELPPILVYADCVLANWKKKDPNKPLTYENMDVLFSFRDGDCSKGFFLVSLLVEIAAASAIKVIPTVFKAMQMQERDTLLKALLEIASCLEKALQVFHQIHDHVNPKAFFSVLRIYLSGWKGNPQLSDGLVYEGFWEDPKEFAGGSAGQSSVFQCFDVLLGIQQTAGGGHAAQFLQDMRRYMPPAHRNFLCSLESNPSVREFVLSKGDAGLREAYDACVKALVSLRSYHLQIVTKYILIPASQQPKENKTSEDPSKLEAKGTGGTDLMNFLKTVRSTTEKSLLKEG
row,Compound,IC50 [nM]
1,"Cc1ccc(NC(=O)Nc2cc(-c3ccc(Cl)cc3C(=O)O)ccc2N(CC(C)C)C2CCCCC2)cc1 [Example 120, 4-chloro-4′-(cyclohexyl(isobutyl)amino)-3′-(3-p-tolylureido)biphenyl-2-carboxylic acid]",30
2,"CC(C)CN(CC(C)C)c1ccc(-c2ccccc2-c2nnn[nH]2)cc1NC(=O)Nc1ccccc1C1CC1 [Example 274, 1-(2-cyclopropylphenyl)-3-(4-(diisobutylamino)-2′-(1H-tetrazol-5-yl)-[1,1′-biphenyl]-3-yl)urea]",460
3,"CC(C)CN(c1ccc(-c2cc(F)ccc2C(=O)O)cc1NC(=O)Nc1ccccc1F)C1CCCCC1 [Example 125, 4′-(cyclohexyl(isobutyl)amino)-5-fluoro-3′-(3-(2-fluorophenyl)ureido) biphenyl-2-carboxylic acid]",5.92
4,"Cc1ccc(NC(=O)Nc2cc(-c3ccccc3-c3nnn[nH]3)ccc2N(CCc2ccccc2)CCC(F)(F)F)cc1 [Example 334, 1-(4-(phenethyl(3,3,3-trifluoropropyl)amino)-2′-(1H-tetrazol-5-yl)-[1,1′-biphenyl]-3-yl)-3-(p-tolyl)urea]",20
5,Cc1ccc(NC(=O)Nc2cc(-c3ccccc3C(=O)NS(=O)(=O)C(F)(F)F)ccc2N(CC(C)C)CC(C)C)cc1 [Example 234],9370
6,"CC(C)CN(c1cc(F)c(-c2ccccc2C(=O)O)cc1NC(=O)Nc1ccccc1F)C1CCCCC1 [Example 228, 4′-(cyclohexyl(isobutyl)amio-no)-2′-fluoro-5′-(3-(2-fluorophenyl)ureido) biphenyl-2-carboxylic acid]",1.74
7,"Cc1ccc(NC(=O)Nc2cc(-c3cnccc3C(=O)O)ccc2N(CC(C)C)CC(C)C)cc1 [Example 151, 3-(4-(diisobutylamino)-3-(3-p-tolylureido)phenyl) isonicotinic acid]",4620
8,"Cc1ccc(NC(=O)Nc2cc(-c3ccccc3-c3nnn[nH]3)ccc2N(CC(C)C)C2CCCC2)cc1 [Example 174, 1-(4-(cyclopentyl (isobutyl)amino)-2′-(1H-tetrazol-5-yl)biphenyl-3-yl)-3-p-tolylurea]",9.92
9,"CC(C)CN(CC(C)C)c1ccc(-c2ccccc2-c2nnn[nH]2)cc1NC(=O)NC1CC1 [Example 139, 1-cyclopropyl-3-(4-(diisobutylamino)-2′-(1H-tetrazol-5-yl)biphenyl-3-yl)urea]",1980
10,"Cc1ccc(NC(=O)Nc2cc(-c3ccccc3C(=O)O)ccc2N(CC(C)C)CC2CC2)cc1 [Example 93, 4′-((cyclopropylmethyl) (isobutyl)amino)-3′-(3-p-tolylureido) biphenyl-2-carboxylic acid]",80
11,"CC(C)CN(CC(C)C)c1ccc(-c2ccccc2-c2nnn[nH]2)cc1NC(=O)Nc1ccccc1OC(F)F [Example 280, 1-(2-(difluoromethoxy)phenyl)-3-(4-(diisobutylamino)-2′-(1H-tetrazol-5-yl)biphenyl-3-yl)urea]",2390
12,"[2H]C([2H])(C(C)C)N(c1ccc(-c2ccccc2-c2nnn[nH]2)cc1NC(=O)Nc1ccccc1F)C1CCCCC1 [Example 32, 1-(4-(Cyclohexyl(1,1-dideutero-2-methylpropyl)amino)-2′-(1H-tetrazol-5-yl)biphenyl-3-yl)-3-(2-fluorophenyl)urea]",2.54
13,Cc1ccc(NC(=O)Nc2cc(-c3ccccc3-c3nnn[nH]3)ccc2N2CCC(c3ccc(F)cc3)C2)cn1 (stereo not drawn) [Example 387],2230
14,"CC(C)CN(c1ccc(-c2ccccc2-c2nnn[nH]2)cc1NC(=O)Nc1ccccc1F)C(C)C [Example 153, 1-(2-fluorophenyl)-3-(4-(isobutyl (isopropyl)amino)-2′-(1H-tetrazol-5-yl)biphenyl-3-yl)urea]",5.16
15,"O=C(Nc1cc(-c2ccccc2-c2nnn[nH]2)ccc1N(CCC(F)(F)F)Cc1ccc(F)cc1)Nc1ccccc1C(F)(F)F [Example 326, 1-(4-((4-fluorobenzyl)(3,3,3-trifluoropropyl)amino)-2′-(1H-tetrazol-5-yl)-[1,1′-biphenyl]-3-yl)-3-(2-(trifluoromethyl)phenyl)urea]",1330
16,"Cc1ccc(NC(=O)Nc2cc(-c3cc(F)ccc3C(=O)O)ccc2N(CCC(F)(F)F)Cc2ccccc2)cc1 [Example 9, 4′-(Benzyl(3,3,3-trifluoropropyl)amino)-5-fluoro-3′-(3-(p-tolyl)ureido)-[1,1′-biphenyl]-2-carboxylic acid]",350
17,"O=C(Nc1cc(-c2ccccc2-c2nnn[nH]2)ccc1N(CCC(F)(F)F)Cc1ccc(F)cc1C(F)(F)F)Nc1ccccc1C(F)(F)F [Example 338, 1-(4-((4-fluoro-2-(trifluoromethyl)benzyl)(3,3,3-trifluoropropyl)amino)-2′-(1H-tetrazol-5-yl)-[1,1′-biphenyl]-3-yl)-3-(2-(trifluoromethyl)phenyl)urea]",490
18,"Cc1ccc(NC(=O)Nc2cc(-c3ccccc3-c3nnn[nH]3)ccc2N(Cc2ccccc2)CC(C)C)cc1 [Example 292, 1-(4-(benzyl(isobutyl)amino)-2′-(1H-tetrazol-5-yl)-[1,1′-biphenyl]-3-yl)-3-(p-tolyl)urea]",4.03

row,Compound,IC50 [nM]
1,"CC(C)CN(CC(C)C)c1ccc(-c2ccccc2-c2nnn[nH]2)cc1NC(=O)Nc1ccc2ncsc2c1 [Example 143, 1-(benzo[d]thiazol-6-yl)-3-(4-(diisobutylamino)-2′-(1H-tetrazol-5-yl)biphenyl-3-yl)urea]",150
2,"CC(C)CN(c1ccc(-c2ccccc2-c2nnn[nH]2)cc1NC(=O)Nc1ccccc1C(F)(F)F)C1CCCCC1 [Example 161, 1-(4-(cyclohexyl(isobutyl)amino)-2′-(1H-tetrazol-5-yl)biphenyl-3-yl)-3-(2-(trifluoromethyl)phenyl)urea]",240
3,"COc1cc(NC(=O)Nc2cc(-c3ccccc3-c3nnn[nH]3)ccc2N(CC(C)C)CC(C)C)ccc1F [Example 252, 1-(4-(diisobutylamino)-2′-(1H-tetrazol-5-yl)-[1,1′-biphenyl]-3-yl)-3-(4-fluoro-3-methoxyphenyl)urea]",1230
4,"CC(C)CN(c1ccc(-c2cc(F)ccc2C(=O)O)cc1NC(=O)Nc1ccccc1F)C(C)C [Example 155, 5-fluoro-3′-(3-(2-fluorophenyl)ureido)-4′-(isobutyl(isopropyl)amino)biphenyl-2-carboxylic acid]",40
5,"Cc1ccc(NC(=O)Nc2cc(-c3ccccc3C(=O)O)ccc2N(C)CC(C)C)cc1 [Example 180, 4′-(isobutyl(methyl)amino)-3′-(3-(p-tolyl)ureido)-[1,1′-biphenyl]-2-carboxylic acid]",230
6,"Cc1ccc(NC(=O)Nc2cc(-c3ccncc3C(=O)O)ccc2N(CC(C)C)CC(C)C)cc1 [Example 159, 4-(4-(diisobutylamino)-3-(3-p-tolylureido)phenyl) nicotinic acid]",980
7,CN(c1ccc(-c2cc(F)ccc2C(=O)O)cc1NC(=O)Nc1ccccc1F)c1ccccc1C(C)(C)C [Example 479],3800
8,"O=C(Nc1ccc(F)nc1)Nc1cc(-c2ccccc2-c2nnn[nH]2)ccc1N1CCC(c2ccccc2)C1 (racemic) [Example 371, (±)-1-(6-Fluoropyridin-3-yl)-3-(4-(3-phenylpyrrolidin-1-yl)-2′-(1H-tetrazol-5-yl)-[1,1′-biphenyl]-3-yl)urea]",3740
9,"CC(C)CN(CC(C)C)c1ccc(-c2ccccc2-c2nnn[nH]2)cc1NC(=O)Nc1ccc2sccc2c1 [Example 259, 1-(benzo[b]thiophen-5-yl)-3-(4-(diisobutylamino)-2′-(1H-tetrazol-5-yl)-[1,1′-biphenyl]-3-yl)urea]",2.44
10,"CC(C)CN(CC(C)C)c1ccc(-c2ccccc2-c2nnn[nH]2)cc1NC(=O)NC(C)C [Example 246, 1-(4-(diisobutylamino)-2′-(1H-tetrazol-5-yl)-[1,1′-biphenyl]-3-yl)-3-isopropylurea]",1220
11,"CCC1CCCCN1c1ccc(-c2ccccc2-c2nnn[nH]2)cc1NC(=O)Nc1ccccc1F (stereo not drawn) [Example 109, 1-(4-(2-ethylpiperidin-1-yl)-2′-(1H-tetrazol-5-yl)biphenyl-3-yl)-3-(2-fluorophenyl)urea]",410
12,"O=C(Nc1ccc(OC(F)(F)F)cc1)Nc1cc(-c2ccccc2-c2nnn[nH]2)ccc1N(CCC(F)(F)F)Cc1ccc(Cl)cc1Cl [Example 337, 1-(4-((2,4-dichlorobenzyl)(3,3,3-trifluoropropyl)amino)-2′-(1H-tetrazol-5-yl)-[1,1′-biphenyl]-3-yl)-3-(4-(trifluoromethoxy)phenyl)urea]",410
13,"CCCN(c1ccc(-c2cc(F)ccc2C(=O)O)cc1NC(=O)Nc1ccc(C)cc1)C1CCCCC1 [Example 87, 4′-(cyclohexyl (propyl)amino)-5-fluoro-3′-(3-p-tolylureido) biphenyl-2-carboxylic acid]",3.68
14,"COCCN(Cc1ccc(Cl)cc1)c1ccc(-c2ccccc2-c2nnn[nH]2)cc1NC(=O)Nc1ccc(C)cc1 [Example 191, 1-(4-((4-chlorobenzyl)(2-methoxyethyl)amino)-2′-(1H-tetrazol-5-yl)-[1,1′-biphenyl]-3-yl)-3-(p-tolyl)urea]",5.79
15,"CC(C)CN(c1ccc(-c2ccccc2-c2nnn[nH]2)cc1NC(=O)Nc1ccc(F)cc1F)C(C)C [Example 156, 1-(2,4-difluorophenyl)-3-(4-(isobutyl (isopropyl)amino)-2′-(1H-tetrazol-5-yl)biphenyl-3-yl)urea]",7.45
16,"CC(C)CN(c1ccc(-c2ccccc2C(=O)O)cc1NC(=O)Nc1ccccc1F)C1CCCC1 [Example 173, 4′-(cyclopentyl(isobutyl)amino)-3′-(3-(2-fluorophenyl)ureido) biphenyl-2-carboxylic acid]",10
17,"Cc1ccc(NC(=O)Nc2cc(-c3ccccc3C(=O)O)ccc2N(CC(C)C)CC(C)CC(F)(F)F)cc1 (stereo not drawn) [Example 28, 4′-(Isobutyl(4,4,4-trifluoro-2-methylbutyl)amino)-3′-(3-(p-tolyl)ureido)-[1,1′-biphenyl]-2-carboxylic acid]",10
18,"CC(C)CN(CCC1CC1)c1ccc(-c2ccccc2-c2nnn[nH]2)cc1NC(=O)Nc1ccccc1F [Example 133, 1-(4-((2-cyclopropylethyl) (isobutyl)amino)-2′-(1H-tetrazol-5-yl)biphenyl-3-yl)-3-(2-fluorophenyl)urea]",6.45
